In the RepoRT retention time repository (doi:10.1007/s11356-017-9929-x) one finds LC retention time data, which are given here for five compounds.

The series can be described thus: RP, GL Sciences Inertsil ODS-4, 150 × 2.1 mm, 3 µm, 40 °C, 0.3 mL/min, estimated dead time 1.1 min; A: water + 5 mM ammonium acetate; B: methanol + 5 mM ammonium acetate; gradient (min/%B) 0/5 30/95 50/95. As to conditions: stereoisomer not certain.

For `Cc1cc(C)cc(C(=O)N(NC(=O)c2ccc3c(c2C)CCCO3)C(C)(C)C)c1`, the LC retention time is 27.9 min.

Regarding `COc1cc(NS(=O)(=O)c2ccc(N)cc2)ncn1`, the LC retention time was 11.8 min. With `CON=C(C)c1cccc(Oc2nc(OC)cc(OC)n2)c1C(=O)OC`, the LC retention time is 26.5 min. The figure for `CC1=NNC(=O)N(N=Cc2cccnc2)C1` is 13 min; for `CCOC(=O)NCCOc1ccc(Oc2ccccc2)cc1` it is 28.8 min.
